Source: publication PMC6390180, “Functionality of membrane proteins overexpressed and purified from E. coli is highly dependent upon the strain” (Scientific Reports, 2019)

Molecular target: T1, PatA/PatB (Streptococcus pneumoniae, UniProt Q8DN70+Q8DN72)
T1 construct: gene ABC-NP; full heterodimer co-expressed from pETDuet-1-PatA/PatB in E. coli C41(DE3), BL21(DE3), T7 express or Lemo21(DE3); His-tagged; inverted membrane vesicles, or purified in LMNG / proteoliposomes
Assay: fluorescence transport assay, inverted membrane vesicles
Format: biochemical
Settings: 1 µM Hoechst 33342, 2 mM GTP, 2 mM MgCl2, pH 8.0, 25 °C; transported drug

T1 sequence (Q8DN70 entry or part of it): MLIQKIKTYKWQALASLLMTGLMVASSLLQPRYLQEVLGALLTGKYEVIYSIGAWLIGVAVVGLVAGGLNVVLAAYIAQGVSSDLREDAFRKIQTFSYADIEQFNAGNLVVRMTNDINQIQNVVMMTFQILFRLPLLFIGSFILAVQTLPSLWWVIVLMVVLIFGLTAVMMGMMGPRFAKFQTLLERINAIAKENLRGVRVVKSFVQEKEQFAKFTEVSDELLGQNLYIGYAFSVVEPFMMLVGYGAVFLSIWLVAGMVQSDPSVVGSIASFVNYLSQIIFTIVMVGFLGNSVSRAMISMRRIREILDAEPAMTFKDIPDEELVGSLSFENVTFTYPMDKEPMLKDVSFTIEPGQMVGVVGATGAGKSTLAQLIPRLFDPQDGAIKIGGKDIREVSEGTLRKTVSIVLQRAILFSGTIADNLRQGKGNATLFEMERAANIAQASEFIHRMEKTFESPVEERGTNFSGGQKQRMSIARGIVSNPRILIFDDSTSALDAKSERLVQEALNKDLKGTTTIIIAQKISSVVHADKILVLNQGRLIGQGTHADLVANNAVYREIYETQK
T1 sequence (Q8DN72 entry or part of it): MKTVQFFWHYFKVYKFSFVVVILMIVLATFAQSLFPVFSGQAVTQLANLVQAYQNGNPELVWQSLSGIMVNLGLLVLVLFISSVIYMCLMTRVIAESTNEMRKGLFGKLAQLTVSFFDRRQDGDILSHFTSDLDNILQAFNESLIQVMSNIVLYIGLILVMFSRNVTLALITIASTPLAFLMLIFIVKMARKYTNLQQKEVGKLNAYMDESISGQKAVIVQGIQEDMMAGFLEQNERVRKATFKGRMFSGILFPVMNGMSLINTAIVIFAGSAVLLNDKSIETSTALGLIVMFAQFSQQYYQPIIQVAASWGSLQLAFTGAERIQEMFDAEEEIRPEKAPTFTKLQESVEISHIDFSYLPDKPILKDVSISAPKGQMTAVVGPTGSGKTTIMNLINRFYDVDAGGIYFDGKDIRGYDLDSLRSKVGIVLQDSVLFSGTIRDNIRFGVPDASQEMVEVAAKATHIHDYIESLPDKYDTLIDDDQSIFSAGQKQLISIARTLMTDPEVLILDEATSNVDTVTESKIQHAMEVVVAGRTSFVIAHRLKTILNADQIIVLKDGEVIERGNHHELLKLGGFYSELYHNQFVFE

Compound: CCOc1ccc(-c2nc3ccc(-c4nc5ccc(N6CCN(C)CC6)cc5[nH]4)cc3[nH]2)cc1 [Hoechst 33342, 2-(4-ethoxyphenyl)-5-(4-methyl-1-piperazinyl)-2,5-bis-1H-benzimidazole]
- fluorescence transport assay, inverted membrane vesicles: a fluorescent drug translocated by PatA/PatB
